Measurements reported in patent publication US20220304964A1, “PARA-AMINOHIPPURIC ACID (PAH) AS A RENAL PROTECTIVE SUBSTANCE” (ITM Isotope Technologies Munich SE, priority 2019, published 2022).
Where two headings read alike, the source gives them in different places.

Key:
rats = details: Natochin et al. 1989; cited from earlier work
[1] = Radiolabel stability of ^99mTc-Etarfolatide (HPLC, ITLC-SG); type: physicochemical; details: 24 h post-preparation
Experimental: Radiolabeling efficiency and stability was determined using: (i) Instant thin layer chromatography-silica gel (ITLC-SG) with water (Rf of ^99mTc-Etarfolatide and free pertechnetate=0.9-1.0; Rf of colloid=0.0-0.1) and acetone (Rf of free pertechnetate=0.9-1.0; Rf of colloid and ^99mTc-Etarfolatide=0.0-0.1) as the mobile phases and (ii) RP-HPLC: Solvent A: 0.1% TFA in H2O. Solvent B: 0.1% TFA in AcCN; Gradient Elution, flow rate 1 mL/min.
On each day of experimentation, a new radiolabeling procedure was performed with approximately the same ^99mTc activity.
The volume of the radiolabeled folate was measured to be 1300 μL, while the activity was 734 MBq (Day of experimentation: March 4th). A sample corresponding to 300 MBq (i.e. 15 MBq×20 mice) was prepared. 531 μL were taken from the radiolabeled folate, which was diluted with either 1469 μL Saline or 1469 μL PAH (2000 μL 99mTc-etarfolatide, 100 μL/15 MBq per mouse). Before injection, the sample was filtered through a […] sterile filter. The injected 15 MBq/mouse corresponds to 2.04 μg Etarfolatide/mouse (injected quantity of Etarfolatide was kept stable throughout the experiment).

mice = assay: Comparative biodistribution of ^99mTc-Etarfolatide given with PAH or saline; type: in vivo; details: PAH IP 10 min prior + tracer diluted in PAH vs saline; after 30 min; FIG. 10
Experimental: 30 mice (male and female) were randomly assigned to two groups.
Group A: The mice were injected with ^99mTc Etarfolatide diluted in PAH (2.04 μg Etarfolatide/mouse) after having received an IP injection of PAH 10 min prior to radiotracer injection. Five time-points were assessed: 5 min, 30 min, 1 h, 2 h, 4 h (3 mice per time-point).
Group B: The mice were injected with ^99mTc Etarfolatide diluted in saline (2.04 μg Etarfolatide/mouse) after having received an IP injection of saline 10 min prior to radiotracer injection. Five time-points were assessed: 5 min, 30 min, 1 h, 2 h, 4 h (3 mice per time-point).

healthy Wistar rats [2] = assay: SPECT/CT kidney and blood (heart) radioactivity of ^177Lu-labeled DOTA compounds with co-injection of PAH or saline; type: in vivo; details: ^177Lu-DOTA-Affilin
Experimental: (§1) The tracer distribution of the radiolabeled test compounds were performed in two distinct cohorts of healthy Wistar rats with focus on the kidney uptake/clearance and blood levels. […] Each cohort comprises at least 3 rats for statistic matters.
Testing parameters were provided for each compound, RCP >95%.
The percentage of injected radioactivity present in the kidneys over time was determined according to the above protocol. The results are graphically illustrated in FIG. 6.
The percentage of injected radioactivity present in blood over time was determined according to the above protocol. The results are graphically illustrated in FIG. 7.

AR42J tumor mouse model = assay: Comparative biodistribution of ^177Lu-DOTATOC i.v. after i.p. PAH or saline; type: in vivo, CD1 nude mice; details: FIG. 9
Experimental: Mice (3 animals per group) were sacrificed at 0.5 h, 1 h, 2 h, and 4 h, respectively. The organs were quickly rinsed in 0.9% NaCl and dried before being weighed and counted to eliminate possible contaminating blood. […] Data from organ/tissue counting are expressed as percentage of injected dose (% ID/g)).

female mice = details: cited from earlier work
[3] = tested on: Laboratory Rat (Rattus norwegicus), Lewis; assay: SPECT biodistribution of ^177Lu-PSMA I&T with kidney protection agents (PAH, Probenecid, saline); type: in vivo; details: for radioactivity in kidney cells (^177Lu-PSMA I&T): compared to the saline control (PAH also compared to probenecid), FIGS. 11 to 14
Text: The protocol was executed in a way to test the radioactivity concentration of the kidneys in groups of animals injected with one TA but three different KP agents in three separate groups. Thus, the following matrix of experimental groups was formed.

male Wistar rats = assay: Ex-vivo organ distribution of [^177Lu-DOTA^o-Tyr3]-octreotide after pre-/co-injection of NaCl, Arg-Lys or PAH; type: in vivo; details: 5 min and 60 min p.i., N=5, with respect to NaCl infusions
Experimental: All animals were pre-injected 10 min before the radiotracer injection with 1.0 mL of NaCl, Arg-Lys or PAH.
The animals were injected and sacrificed after 5 min or 60 min. Organs and tissue of interest were harvested and measured for activity. […] The average injected activity was 4.49±0.38 MBq/kg body weight (5 min) and 159±13 MBq/kg body weight (5 min) for the SPECT and 4.19±0.57 MBq/kg body weight (60 min) or 139±8 MBq/kg body weight for the SPECT animals (60 min).
(§2) For statistical analysis Microsoft Excel 2010 and Graphpad Prism 6.05 were employed. Data are presented as median and [25% and 75% percentile] and mean and standard deviation (SD) or standard error of mean (SEM). For comparison, ordinary one way ANOVA and Tukey's multiple comparisons test, two-sample two-tailed t-test were employed. Significance was accepted with P<0.05.
The results are graphically illustrated in FIG. 5.

[4] = low plasma concentrations (1.0 to 2.0 mg/100 mL); average; cited from earlier work
healthy Wistar rats [5] = assay: PET/CT kidney and blood radioactivity of ^68Ga-labeled HBED-CC-PSMA-11 with co-injection of PAH or saline; type: in vivo; details: PAH 200 mg/mL vs 0.9% NaCl; 0.1, 0.5, 1, 2, 4 h; FIG. 8
Experimental: as §1
Mice were injected with diagnostic ^68Ga-labeled PSMA-11 conjugated with acyclic chelator HBED-CC, and co-injected with PAH (200 mg/mL) or saline (0.9% NaCl) as a control. The percentage of injected radioactivity present in kidney (upper lane) and blood (lower lane) over time was determined according to the above protocol. The results are graphically illustrated in FIG. 8.

healthy Wistar rats [6] = assay: Kidneys uptake of [^177Lu-DOTA^o-Tyr3]-octreotide by quantitative small animal SPECT with co-infusion of kidney protection agent; type: in vivo; details: vs 0.9% NaCl co-infusion
Experimental: Imaging acquisition was performed after 0.5 h, 1 h, 4 h, 8 h, 24 h p.i.
as §2

patients = details: cited from earlier work
[7] = group B (PAH) compared to group A (NaCl)
[8] = at all time points (0.5-4 h), vs saline

SMILES: C[N+](C)(C)CCO.[Cl-] [Choline chloride]
- effect on cisplatin's nephrotoxic effects (rats): reduce cisplatin's nephrotoxic effects

SMILES: Nc1nc2ncc(CNc3ccc(C(=O)N[C@H](CCC(=O)NC[C@@H]4[NH][99Tc]56(=[O])[S]C[C@@H](C(=O)O)[N]5C(=O)[C@H](CC(=O)O)[N]6C4=O)C(=O)O)cc3)nc2c(=O)[nH]1 [^99mTc-Etarfolatide]
- Stability of radiolabel by HPLC [1]: no loss of radiolabel

SMILES: Nc1ccc(C(=O)NCC(=O)O)cc1 [PAH, para-aminohippuric acid]
- renal uptake of ^99mTc-Etarfolatide (mice): decreased renal uptake
- kidney uptake of Affilin (healthy Wistar rats [2]; PAH 200 mg/mL vs 0.9% NaCl, versus the other compounds tested): less prominently reduced
- blood activity of Affilin (percentage of injected radioactivity in blood) (healthy Wistar rats [2]; co-injected PAH 200 mg/mL vs 0.9% NaCl, FIG. 7): significant increase of blood activity
- kidney uptake of radiolabeled compounds (percentage of injected radioactivity in kidneys) (healthy Wistar rats [2]; ^177Lu-DOTA-RGD, ^177Lu-DOTA-Sargastrin, ^177Lu-DOTA-JR11, PAH 200 mg/mL vs 0.9% NaCl, 0.5, 1, 4, 24 h, FIG. 6): significant effect in reduction of kidney uptake
- ^177Lu-DOTATOC uptake in kidneys (AR42J tumor mouse model; group B (PAH 20% i.p. 50 μL + ^177Lu-DOTATOC/PAH) vs group A (NaCl 0.9%), 0.5-4 h): significant decrease
- ^177Lu-DOTATOC level in blood (AR42J tumor mouse model; [7]): significantly increased
- ^177Lu-DOTATOC level in tumor (AR42J tumor mouse model; [7]): significantly increased
- intravenous LD 50 (female mice): 7220 mg/kg
- renal cortex radioactivity (^177Lu-PSMA I&T) [3, 8]: reduced radioactivity
- renal medulla radioactivity (^177Lu-PSMA I&T) [3, 8]: reduced radioactivity
- radioactivity in kidney cells (^177Lu-PSMA I&T) [3]: marked reduction of radioactivity
- ex-vivo uptake of [^177Lu-DOTA^o-Tyr3]-octreotide in the kidneys (male Wistar rats): significantly reduced the uptake in the kidneys
- PAH cleared by the kidneys from the renal blood stream by a single circulation [4]: 90%
- effect on cisplatin's nephrotoxic effects (rats): reduce cisplatin's nephrotoxic effects
- kidney uptake of ^68Ga-labeled HBED-CC conjugated PSMA-11 (healthy Wistar rats [5]): significant reduction of kidney uptake
- kidney uptake reduction of [^177Lu-DOTA^o-Tyr3]-octreotide (healthy Wistar rats [6]; 0.5 h post injection): 50%
- kidney uptake reduction of [^177Lu-DOTA^o-Tyr3]-octreotide (healthy Wistar rats [6]; after 8 h): 56%
- kidney uptake reduction of [^177Lu-DOTA^o-Tyr3]-octreotide (healthy Wistar rats [6]; after 24 h): 50%

SMILES: NCCCC[C@H](N)C(=O)O [lysine]
- Kidney uptake reduction of radiolabeled octreotide (patients; 25 g of lysine, P<0.04): 17%+/−9%
- Kidney uptake reduction of radiolabeled octreotide (patients; 50 g of lysine, P<0.04): 15%+/−13%
- serum potassium levels (patients; 75 g of lysine (Lys75) or 25 g lysine plus 25 g arginine (LysArg)): rose significantly
- Kidney uptake reduction of radiolabeled octreotide (patients; 75 g of lysine, P<0.001): 44%+/−11%

SMILES: NS(=O)(=O)c1cc(C(=O)O)c(NCc2ccco2)cc1Cl [fursosemide]
- effect on cisplatin's nephrotoxic effects (rats): reduce cisplatin's nephrotoxic effects

SMILES: C=C(CC)C(=O)c1ccc(OCC(=O)O)c(Cl)c1Cl [ethacrynic acid]
- effect on cisplatin's nephrotoxic effects (rats): reduce cisplatin's nephrotoxic effects

SMILES: CCCN(CCC)S(=O)(=O)c1ccc(C(=O)O)cc1 [Probenecid]
- radioactivity in kidney cells (^177Lu-PSMA I&T) [3]: no effect
